Source: patent US5760063A, “Arylhydrazone derivatives useful as antibacterial agents” (Scriptgen Pharmaceuticals, Inc., priority 1996, dated 1998)
Values after ≈ are worked out from the molar mass of the structure shown.

What follows are compounds tested on Enterobacter cloacae (assay: MIC assay, Enterobacter cloacae (CL)). Settings: OD 595 nm after 18 hours.
Type: cell-based
Description: (§1) Compounds were prepared to a concentration of 10 mM in 100% DMSO. These were then diluted to 200 μM with 50 mM tris. A 2% DMSO solution was prepared in 50 mM tris as well as a 20 μM solution of rifampicin in 2% DMSO with 50 mM tris. With each compound and control, one to one dilutions were made in a serial dilution fashion across microtiter plates with 50 mM tris. The highest concentration was 200 μM for each compound and 20 μM for rifampicin. The lowest concentrations were 1.562 μM and 0.156 μM for the compounds and rifampicin respectively.
(§2) S. aureus, E. coli, Psuedomonas aeruginosa, Enterobacter cloacae, and Enterococcus faecium cells had been grown up in a shake culture overnight at 37° C. in LB medium. These were diluted 500 fold and added to the compounds at an equal volume. The highest compound concentration was now 100 μM, and 10 μM for rifampicin. Baseline O.D. readings were taken at 595 nm utilizing a Bio-Rad 3550-UV plate reader. A second reading was taken after 18 hours.
`CS(=O)(=O)c1ccc(NN=C(C#N)C(=O)c2ccc(Cl)cc2)cc1` [Example 1] was tested, and the MIC was less than 0.5 µM.
`CS(=O)(=O)C(=NNc1ccc([N+](=O)[O-])cc1)C(=O)c1ccc(Cl)cc1` [Example 2] was tested, and the MIC was 0.5 to 10 µM (≈ 0.191 to 3.82 µg/mL).
Work on `CC(=O)N(N=C(C#N)C(=O)c1ccc(Cl)cc1)c1ccc([N+](=O)[O-])cc1` [Example 3] yielded an MIC of 0.5 to 10 µM (≈ 0.185 to 3.71 µg/mL).
With `CSc1ccc(NN=C(C#N)C(=O)c2ccc(Cl)cc2)cc1` [Example 4] the MIC was 0.5 to 10 µM (≈ 0.165 to 3.3 µg/mL).
Compound `C[S+]([O-])c1ccc(NN=C(C#N)C(=O)c2ccc(Cl)cc2)cc1` (centres unmarked) [Example 5] has an MIC of 0.5 to 10 µM (≈ 0.173 to 3.46 µg/mL).
`N#CC(=NNc1ccc([N+](=O)[O-])cc1)C(=O)c1ccc(-c2ccccc2)cc1` [Example 6] gave an MIC of 0.5 to 10 µM (≈ 0.185 to 3.7 µg/mL).
Compound `CS(=O)(=O)Nc1ccc(NN=C(C#N)C(=O)c2ccc(Cl)cc2)cc1` [Example 7] has an MIC of 0.5 to 10 µM (≈ 0.188 to 3.77 µg/mL).
`N#CC(=NNc1ccc(C(=O)O)cc1)C(=O)c1ccc(Cl)cc1` [Example 9] gave an MIC greater than 10 µM.
Compound `CC(=O)Nc1ccc(NN=C(C#N)C(=O)c2ccc(Cl)cc2)cc1` [Example 10] has an MIC greater than 10 µM.
Work on `CS(=O)(=O)c1ccc(NN=C(C#N)C(=O)c2ccc(-c3ccccc3)cc2)cc1` [Example 11] yielded an MIC greater than 10 µM.
For `N#CC(=NNc1ccc(Cl)cc1)C(=O)c1ccc(-c2ccccc2)cc1` [Example 13], the MIC was greater than 10 µM.

Each compound was assayed on Psuedomonas aeruginosa (assay: MIC assay, Psuedomonas aeruginosa (PS)). Settings: OD 595 nm after 18 hours.
Type: cell-based
Description: as §1, §2
In the case of `CS(=O)(=O)c1ccc(NN=C(C#N)C(=O)c2ccc(Cl)cc2)cc1` [Example 1], the MIC is reported as greater than 10 µM.
`CS(=O)(=O)C(=NNc1ccc([N+](=O)[O-])cc1)C(=O)c1ccc(Cl)cc1` [Example 2] gave an MIC greater than 10 µM.
With `CC(=O)N(N=C(C#N)C(=O)c1ccc(Cl)cc1)c1ccc([N+](=O)[O-])cc1` [Example 3] the MIC was greater than 10 µM.
For `CSc1ccc(NN=C(C#N)C(=O)c2ccc(Cl)cc2)cc1` [Example 4], the MIC was greater than 10 µM.
`C[S+]([O-])c1ccc(NN=C(C#N)C(=O)c2ccc(Cl)cc2)cc1` (centres unmarked) [Example 5] was tested, and the MIC was greater than 10 µM.
In the case of `N#CC(=NNc1ccc([N+](=O)[O-])cc1)C(=O)c1ccc(-c2ccccc2)cc1` [Example 6], the MIC is reported as greater than 10 µM.
For `CS(=O)(=O)Nc1ccc(NN=C(C#N)C(=O)c2ccc(Cl)cc2)cc1` [Example 7], the MIC was greater than 10 µM.
`N#CC(=NNc1ccc(C(=O)O)cc1)C(=O)c1ccc(Cl)cc1` [Example 9] showed an MIC greater than 10 µM.
With `CC(=O)Nc1ccc(NN=C(C#N)C(=O)c2ccc(Cl)cc2)cc1` [Example 10] the MIC was greater than 10 µM.
Compound `CS(=O)(=O)c1ccc(NN=C(C#N)C(=O)c2ccc(-c3ccccc3)cc2)cc1` [Example 11] has an MIC greater than 10 µM.
`N#CC(=NNc1ccc(Cl)cc1)C(=O)c1ccc(-c2ccccc2)cc1` [Example 13] gave an MIC greater than 10 µM.

The compounds below were run on S. aureus (assay: MIC assay, S. aureus). Settings: Staphylococcus aureus, 18 h, read-out: S. Aur. MIC.
Type: cell-based
Description: as §1, §2
Compound `CS(=O)(=O)c1ccc(NN=C(C#N)C(=O)c2ccc(Cl)cc2)cc1` [Example 1] has an MIC greater than 10 µM.
Work on `CC(=O)N(N=C(C#N)C(=O)c1ccc(Cl)cc1)c1ccc([N+](=O)[O-])cc1` [Example 3] yielded an MIC greater than 10 µM.
`CSc1ccc(NN=C(C#N)C(=O)c2ccc(Cl)cc2)cc1` [Example 4] gave an MIC greater than 10 µM.
`C[S+]([O-])c1ccc(NN=C(C#N)C(=O)c2ccc(Cl)cc2)cc1` (centres unmarked) [Example 5] was tested, and the MIC was greater than 10 µM.
Compound `N#CC(=NNc1ccc([N+](=O)[O-])cc1)C(=O)c1ccc(-c2ccccc2)cc1` [Example 6] has an MIC greater than 10 µM.
With `N#CC(=NNc1ccc(Cl)cc1)C(=O)c1ccc(-c2ccccc2)cc1` [Example 13] the MIC was greater than 10 µM.

Each compound was assayed against E. coli RNAP (Escherichia coli, UniProt P0A8T7+P0A8V2) (assay: High throughput in vitro transcription (RNAP) assay). Settings: 60 minutes incubation.
Chain of E. coli RNAP (P0A8V2 whole entry): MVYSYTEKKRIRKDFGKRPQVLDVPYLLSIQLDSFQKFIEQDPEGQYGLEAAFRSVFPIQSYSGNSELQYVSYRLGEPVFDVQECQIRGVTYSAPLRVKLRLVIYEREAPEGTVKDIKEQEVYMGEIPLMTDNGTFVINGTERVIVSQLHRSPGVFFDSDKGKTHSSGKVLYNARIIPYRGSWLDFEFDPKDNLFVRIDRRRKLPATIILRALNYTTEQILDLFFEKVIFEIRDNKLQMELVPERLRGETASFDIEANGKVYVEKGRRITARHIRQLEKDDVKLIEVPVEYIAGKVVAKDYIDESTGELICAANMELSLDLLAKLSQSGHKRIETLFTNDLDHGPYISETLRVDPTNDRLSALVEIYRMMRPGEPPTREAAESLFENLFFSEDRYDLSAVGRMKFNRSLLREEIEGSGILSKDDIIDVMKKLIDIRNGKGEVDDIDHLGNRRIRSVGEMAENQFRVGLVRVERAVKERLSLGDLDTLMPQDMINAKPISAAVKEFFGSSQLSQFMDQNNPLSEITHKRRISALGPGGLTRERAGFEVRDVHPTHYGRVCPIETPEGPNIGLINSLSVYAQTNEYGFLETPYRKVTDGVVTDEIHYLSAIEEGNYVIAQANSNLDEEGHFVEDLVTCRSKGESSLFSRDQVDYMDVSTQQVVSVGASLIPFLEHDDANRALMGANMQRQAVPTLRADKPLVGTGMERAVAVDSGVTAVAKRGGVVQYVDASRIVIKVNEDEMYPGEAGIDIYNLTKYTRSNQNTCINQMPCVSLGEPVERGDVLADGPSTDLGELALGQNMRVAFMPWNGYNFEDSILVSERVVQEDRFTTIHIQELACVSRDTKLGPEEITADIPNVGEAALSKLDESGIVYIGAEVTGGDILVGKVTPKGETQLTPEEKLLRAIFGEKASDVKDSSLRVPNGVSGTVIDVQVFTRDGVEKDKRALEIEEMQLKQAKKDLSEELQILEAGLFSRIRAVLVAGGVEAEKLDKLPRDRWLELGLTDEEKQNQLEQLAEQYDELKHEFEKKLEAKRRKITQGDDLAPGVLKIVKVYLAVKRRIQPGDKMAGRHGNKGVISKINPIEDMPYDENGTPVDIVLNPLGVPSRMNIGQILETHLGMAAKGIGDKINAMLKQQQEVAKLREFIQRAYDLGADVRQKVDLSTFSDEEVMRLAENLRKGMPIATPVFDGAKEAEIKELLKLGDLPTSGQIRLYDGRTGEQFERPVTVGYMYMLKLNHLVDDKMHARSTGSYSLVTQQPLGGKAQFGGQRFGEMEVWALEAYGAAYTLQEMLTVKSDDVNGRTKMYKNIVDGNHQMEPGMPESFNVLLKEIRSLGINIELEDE
Chain of E. coli RNAP (P0A8T7 whole entry): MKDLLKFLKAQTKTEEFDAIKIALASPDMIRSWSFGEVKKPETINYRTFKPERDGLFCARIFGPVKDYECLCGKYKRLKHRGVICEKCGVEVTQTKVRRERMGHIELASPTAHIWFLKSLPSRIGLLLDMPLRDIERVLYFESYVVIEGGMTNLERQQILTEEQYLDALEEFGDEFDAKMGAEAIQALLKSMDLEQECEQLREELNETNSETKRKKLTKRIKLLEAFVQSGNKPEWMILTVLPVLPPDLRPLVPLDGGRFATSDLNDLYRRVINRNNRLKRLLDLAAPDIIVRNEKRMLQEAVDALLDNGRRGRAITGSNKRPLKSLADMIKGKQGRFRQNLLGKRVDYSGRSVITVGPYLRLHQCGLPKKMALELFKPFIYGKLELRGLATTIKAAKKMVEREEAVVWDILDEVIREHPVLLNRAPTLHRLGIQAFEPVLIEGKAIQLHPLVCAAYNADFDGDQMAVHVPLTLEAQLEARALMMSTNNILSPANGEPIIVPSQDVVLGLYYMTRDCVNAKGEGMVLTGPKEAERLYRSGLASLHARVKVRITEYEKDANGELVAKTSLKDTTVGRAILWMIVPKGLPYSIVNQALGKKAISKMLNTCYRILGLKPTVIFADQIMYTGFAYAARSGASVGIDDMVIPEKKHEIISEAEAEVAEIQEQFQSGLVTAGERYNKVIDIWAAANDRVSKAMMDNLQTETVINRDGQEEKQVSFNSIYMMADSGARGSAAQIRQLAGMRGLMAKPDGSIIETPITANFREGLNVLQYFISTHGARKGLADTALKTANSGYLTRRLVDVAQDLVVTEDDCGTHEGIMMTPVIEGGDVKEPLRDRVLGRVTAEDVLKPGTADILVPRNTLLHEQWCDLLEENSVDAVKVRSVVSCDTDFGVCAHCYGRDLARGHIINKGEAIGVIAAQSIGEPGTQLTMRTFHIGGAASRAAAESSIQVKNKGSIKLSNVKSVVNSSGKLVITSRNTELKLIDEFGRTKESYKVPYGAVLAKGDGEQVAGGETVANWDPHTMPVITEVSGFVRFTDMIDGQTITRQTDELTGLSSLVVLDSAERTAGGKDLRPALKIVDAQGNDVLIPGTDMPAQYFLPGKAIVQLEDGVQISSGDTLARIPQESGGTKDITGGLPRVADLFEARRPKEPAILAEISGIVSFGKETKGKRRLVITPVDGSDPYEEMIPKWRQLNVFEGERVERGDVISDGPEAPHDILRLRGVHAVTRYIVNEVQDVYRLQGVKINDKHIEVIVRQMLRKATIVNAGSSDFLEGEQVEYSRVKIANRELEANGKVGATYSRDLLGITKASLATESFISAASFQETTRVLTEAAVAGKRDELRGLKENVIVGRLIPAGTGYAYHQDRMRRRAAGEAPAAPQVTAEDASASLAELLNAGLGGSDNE
Chain of E. coli RNAP (P0A7Z4 whole entry partner): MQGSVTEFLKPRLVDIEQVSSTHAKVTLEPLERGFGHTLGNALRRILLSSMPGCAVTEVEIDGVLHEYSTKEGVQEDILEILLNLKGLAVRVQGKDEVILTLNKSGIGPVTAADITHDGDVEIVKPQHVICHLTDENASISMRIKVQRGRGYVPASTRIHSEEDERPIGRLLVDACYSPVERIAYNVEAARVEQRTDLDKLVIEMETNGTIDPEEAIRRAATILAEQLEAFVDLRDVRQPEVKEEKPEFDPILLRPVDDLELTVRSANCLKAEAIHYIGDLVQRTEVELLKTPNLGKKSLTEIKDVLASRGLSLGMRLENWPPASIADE
Type: biochemical
Description: (I) High Throughput in vitro Transcription (RNAP) Assay
The reagents are added to the DMSO/compound with a Tomtec Quadra. The Quadra acts as 96-tip pipetman, combined with a movable base. The reagents and compounds are stored and used in 96-well polypropylene u-bottom microtiter plates.
The Quadra is run in backfill mode (filled with water). A total of […] of reagents must be added. This is divided into a 20 ml RNAP/Txn Buffer mix and a 25 ml DNA/NTP/water mix. The RNAP mix is added first to allow the drug a chance to interact with RNAP before RNAP interacts with DNA (this interaction lasts less than 5 seconds). The mixing of the reagents is done with a multivortexer after all reagents have been added (setting 5.5 for 90 seconds).
After incubation for 60 minutes, the reaction is stopped with 150 ml 10% TCA, which also precipitates the RNA. The RNA is allowed to sit a room temperature for approximately 15-45 minutes (until all plates have been stopped and the cell harvester has been set up).
The TCA precipitated RNA is transferred to double-thick glass filtermats using a Tomtec cell harvester. The wells of the microtiter plate are washed with 5% TCA and sucked through the same filtermat. Two additional washes with 5 % TCA solution are sufficient to reduce background counts.
The filters are then dried at 60° for 60 minutes. It is important to remove all of the liquid, or this may quench the scintillation fluid when it is added.
The dry filters are sealed into plastic bags with a heat-sealer. A hole is cut in one corner and 12 ml of "β-plate scintillant" is added to each bag.
When choosing a scintillation counting program on the Wallac Microb 1450, it is important to choose one which counts using the appropriate window for P^32. Each well is counted for 3 seconds. The data obtained is used to calculate an lC50 value.
Compound `CS(=O)(=O)c1ccc(NN=C(C#N)C(=O)c2ccc(Cl)cc2)cc1` [Example 1] has an IC50 of less than 0.5 µM.
For `CS(=O)(=O)C(=NNc1ccc([N+](=O)[O-])cc1)C(=O)c1ccc(Cl)cc1` [Example 2], the IC50 was 0.5 to 10 µM.
`CC(=O)N(N=C(C#N)C(=O)c1ccc(Cl)cc1)c1ccc([N+](=O)[O-])cc1` [Example 3] showed an IC50 of 0.5 to 10 µM.
Work on `CSc1ccc(NN=C(C#N)C(=O)c2ccc(Cl)cc2)cc1` [Example 4] yielded an IC50 of 0.5 to 10 µM.
Work on `C[S+]([O-])c1ccc(NN=C(C#N)C(=O)c2ccc(Cl)cc2)cc1` (centres unmarked) [Example 5] yielded an IC50 of 0.5 to 10 µM.
With `N#CC(=NNc1ccc([N+](=O)[O-])cc1)C(=O)c1ccc(-c2ccccc2)cc1` [Example 6] the IC50 was 0.5 to 10 µM.
`CS(=O)(=O)Nc1ccc(NN=C(C#N)C(=O)c2ccc(Cl)cc2)cc1` [Example 7] showed an IC50 of 0.5 to 10 µM.
In the case of `N#CC(=NNc1ccc(C(=O)O)cc1)C(=O)c1ccc(Cl)cc1` [Example 9], the IC50 is reported as greater than 10 µM.
Work on `CC(=O)Nc1ccc(NN=C(C#N)C(=O)c2ccc(Cl)cc2)cc1` [Example 10] yielded an IC50 greater than 10 µM.
`CS(=O)(=O)c1ccc(NN=C(C#N)C(=O)c2ccc(-c3ccccc3)cc2)cc1` [Example 11] was tested, and the IC50 was greater than 10 µM.
`N#CC(=NNc1ccc(Cl)cc1)C(=O)c1ccc(-c2ccccc2)cc1` [Example 13] gave an IC50 greater than 10 µM.

The compounds below were run on Enterococcus faecium (assay: MIC assay, Enterococcus faecium (FAE)). Settings: OD 595 nm after 18 hours.
Type: cell-based
Description: as §1, §2
`CS(=O)(=O)c1ccc(NN=C(C#N)C(=O)c2ccc(Cl)cc2)cc1` [Example 1] gave an MIC greater than 10 µM.
`CS(=O)(=O)C(=NNc1ccc([N+](=O)[O-])cc1)C(=O)c1ccc(Cl)cc1` [Example 2] was tested, and the MIC was greater than 10 µM.
Work on `CC(=O)N(N=C(C#N)C(=O)c1ccc(Cl)cc1)c1ccc([N+](=O)[O-])cc1` [Example 3] yielded an MIC greater than 10 µM.
`CSc1ccc(NN=C(C#N)C(=O)c2ccc(Cl)cc2)cc1` [Example 4] showed an MIC greater than 10 µM.
With `C[S+]([O-])c1ccc(NN=C(C#N)C(=O)c2ccc(Cl)cc2)cc1` (centres unmarked) [Example 5] the MIC was greater than 10 µM.
`N#CC(=NNc1ccc([N+](=O)[O-])cc1)C(=O)c1ccc(-c2ccccc2)cc1` [Example 6] was tested, and the MIC was 1 µM (≈ 0.37 µg/mL).
For `CS(=O)(=O)Nc1ccc(NN=C(C#N)C(=O)c2ccc(Cl)cc2)cc1` [Example 7], the MIC was greater than 10 µM.
`N#CC(=NNc1ccc(C(=O)O)cc1)C(=O)c1ccc(Cl)cc1` [Example 9] was tested, and the MIC was greater than 10 µM.
`CC(=O)Nc1ccc(NN=C(C#N)C(=O)c2ccc(Cl)cc2)cc1` [Example 10] gave an MIC greater than 10 µM.
`CS(=O)(=O)c1ccc(NN=C(C#N)C(=O)c2ccc(-c3ccccc3)cc2)cc1` [Example 11] showed an MIC greater than 10 µM.
`N#CC(=NNc1ccc(Cl)cc1)C(=O)c1ccc(-c2ccccc2)cc1` [Example 13] showed an MIC greater than 10 µM.
